The results in this text go back to a melting point compilation (Tetko et al.).

Take `CC(C)c1nnc(S)n1N`: the melting point fell in the range of 117 to 119 °C.

For the molecule `Cc1noc(C(F)F)c1C(=O)O`, the melting point lay in the range of 134 to 136 °C. In turn, `O=C(O)CN1CCCOC1=O` had a melting point of 172 to 174 °C. As for `N#Cc1ccc(NCC(=O)O)cc1`, the melting point lay within 225 to 227 °C.

The molecule `O=C(O)C1CCN(C(=O)c2cccnc2)CC1` came in with a melting point of 188 to 190 °C. Molecule `O=S(=O)(Nc1ccc2cn[nH]c2c1)c1ccc2c(c1)CCC2` returned a melting point of 168 to 170 °C. Take `O=C(CCl)Nc1ccncc1`: the melting point lay in the range of 295 to 297 °C. As to `O=C1CCc2cc3c(cc21)OCCO3`, the melting point lay within 118 to 120 °C. Consider `O=C1NCCC=C1Cl`, for which the melting point was 76 to 78 °C.

The molecule `O=Cc1cnc(-c2cnccn2)s1` yielded a melting point of 159 to 161 °C. To `O=C(CSc1nnc(S)s1)c1ccccc1` belongs 188 to 192 °C; to `NC(=O)c1cc(N)ccc1Cl`, 153 to 155 °C. `COc1nc(Cl)nc(Cl)n1` showed a melting point of 89 to 91 °C.

Molecule `O=C1NC(=O)C(Cc2ccc(O)cc2)N1` (centres undefined) gave a melting point of 267 to 269 °C. With `N#Cc1ccc(N2CCOC2=O)nc1` the figure was 186 to 188 °C; with `Nc1sc2c(c1C(=O)NCc1ccccc1)CCCC2`, 112 to 114 °C.

Turning to `CC(C)(C)OC(=O)Nc1cocn1`, the melting point was in the range of 108 to 110 °C. With `CC(=O)Nc1ccc(C)c(N)c1` the figure was 134 to 136 °C; with `CC(=CC(=O)O)c1ccccc1C`, 81 to 83 °C. Take `Cc1cc(CSc2ncccc2C(=O)O)no1`: the melting point lay in the range of 169 to 171 °C. In turn, `O=C(CCl)Nc1ccc(F)c(F)c1` gave a melting point of 106 to 108 °C.

For the molecule `Oc1nc(-c2ccccc2Cl)no1`, the melting point was 161 to 163 °C. `CC(Nc1nc2ccccc2s1)C(=O)O` (centres undefined) gave a melting point of 259 to 261 °C.

As to `CC(C)(C)c1ccc(S(=O)(=O)N2CCNCC2)cc1`, the melting point lay within 126 to 128 °C.

`Cc1cn(-c2cccnc2)nc1N` came in with a melting point of 135 to 137 °C. On to `O=C(O)C1=NN(c2ccccc2)C(=O)CC1`, for which the melting point lay within 169 to 171 °C. `CC(C)OC(=O)CC(N)=S`: the melting point fell in the range of 68 to 70 °C. The molecule `CC(C)(C(=O)O)c1cccc(Br)c1` returned a melting point of 68 to 70 °C. For `O=C(O)c1cc(F)ccc1-n1ccnc1`, the melting point was 229 to 231 °C. The molecule `Cc1c(Cl)nc(N(C)C)nc1Cl` registered a melting point of 54 to 56 °C.

In turn, `CCc1ccc2c(CCl)cc(=O)oc2c1` registered a melting point of 138 to 140 °C. Regarding `N#Cc1cc2c(nc1Cl)CCCC2`, the melting point was 128 to 130 °C. `CNS(=O)(=O)c1cc(C(=O)O)c(C)o1` displayed a melting point of 154 to 156 °C. With `N#Cc1ccc(-c2cnc(CCl)o2)cc1` the figure was 124 to 126 °C. With `CC(C)Cn1c(S)nc2cc(Cl)ccc2c1=O`, the melting point fell in the range of 221 to 223 °C. `NCc1cc(C(N)=O)no1`: the melting point was in the range of 149 to 151 °C.

`Cc1cc(C(=O)O)c(C)n1-c1ccc(C#N)cc1` displayed a melting point of 249 to 251 °C. With `COc1cc(C=O)ccc1OCc1c(C)cc(C(C)(C)C)cc1C` the figure was 139 to 141 °C.

Turning to `CCC1(C)NC(=O)N(CC(=O)O)C1=O` (centres undefined), the melting point lay within 156 to 158 °C. `O=C(CCl)Nc1ccccc1[N+](=O)[O-]`: the melting point was 91 to 93 °C. `Nc1nc2cnccc2s1` had a melting point of 275 to 277 °C. For the molecule `O=C(O)CNc1cccc(C(F)(F)F)c1`, the melting point lay within 123 to 125 °C. The molecule `COC(=O)CNc1ccncc1[N+](=O)[O-]` yielded a melting point of 104 to 106 °C. With `NS(=O)(=O)c1ccc(S)nc1` the figure was 242 to 244 °C; with `Cc1cc2cn[nH]c2cc1N`, 219 to 221 °C; with `COC(=O)c1cc(C(=O)OC)cc(S(=O)(=O)Cl)c1`, 105 to 107 °C. For the molecule `COC(=O)C(=O)CC(=O)c1ccc(OC)cc1`, the melting point fell in the range of 104 to 106 °C. As to `CCC(=O)Nc1ccc(N)cc1`, the melting point was in the range of 82 to 84 °C. Turning to `CN(C)S(=O)(=O)c1ccc(F)c([N+](=O)[O-])c1`, the melting point lay in the range of 118 to 120 °C. To `N=C(NN)c1cc(F)cc(F)c1` belongs 101 to 103 °C.

The molecule `Nc1ccc(SCc2ccccc2)cn1` had a melting point of 94 to 96 °C.

As to `Cc1ccc(-c2nc(CC(=O)O)cs2)c(C)c1`, the melting point lay within 104 to 106 °C.

For the molecule `O=[N+]([O-])c1c(Cl)ccc2scnc12`, the melting point is 132 to 134 °C. With `Cc1cc(S)n2c(nc3ccccc32)c1C#N` the figure was 198 to 200 °C; with `Cc1sc(-n2c(C)ccc2C)c(C(=O)O)c1C`, 171 to 173 °C. In the case of `NCc1cnn(-c2cccc(Cl)c2)c1`, the melting point was 88 to 90 °C.

The molecule `Cc1nc(Cl)c2c3c(sc2n1)CCCCC3` displayed a melting point of 43 to 47 °C.

For `Cc1cc(C)c2nc(Cl)cc(C)c2c1`, the melting point was in the range of 128 to 132 °C. In the case of `CC1CC1C(N)=O` (centres undefined), the melting point was in the range of 93 to 95 °C. For `Nc1nnc(C23CC4CC(CC(C4)C2)C3)s1`, the melting point was 197 to 199 °C. Molecule `O=C(O)CNC(=O)C1CCCC1` showed a melting point of 109 to 111 °C.

`CC(=O)Nc1ncc(-c2ccc(O)cc2)s1` gave a melting point of 218 to 220 °C.

Molecule `N#Cc1ccccc1SCC(=O)O` yielded a melting point of 143 to 145 °C. For `OC(c1ccc[nH]1)C(F)(F)F` (centres undefined), the melting point was 47 to 49 °C.

Molecule `CC(Cl)C(=O)Nc1ccccc1C(F)(F)F` (centres undefined) showed a melting point of 92 to 94 °C. Molecule `COC(=O)c1ccc(C)c(NC(=O)CCl)c1` gave a melting point of 135 to 137 °C. `Cc1cc([N+](=O)[O-])cc(C)c1N` registered a melting point of 161 to 163 °C. On to `O=C(O)CCc1ccc(Cl)s1`, for which the melting point is 50 to 52 °C. In turn, `Cc1cccc2[nH]cc(CC(=O)O)c12` yielded a melting point of 149 to 151 °C. In turn, `COc1cc(OC)cc(C(=O)NCC(=O)O)c1` had a melting point of 91 to 93 °C. `CC(=O)c1ccc(N2CCCCC2)c(F)c1` came in with a melting point of 67 to 69 °C. Consider `ClCc1csc(-c2ncccn2)n1`, for which the melting point was 147 to 149 °C. Turning to `COC(=O)C(C)(O)c1ccncc1` (centres undefined), the melting point fell in the range of 104 to 106 °C.

Turning to `Nc1ccc(S(=O)(=O)NC2CN3CCC2CC3)cc1` (centres undefined), the melting point was 168 to 170 °C. The molecule `CC1Cc2ccccc2N1C(=O)CO` (centres undefined) had a melting point of 75 to 77 °C. `COC(=O)Nc1ccccc1C(=O)O` came in with a melting point of 177 to 179 °C. To `N#Cc1csc(C(=O)O)c1` belongs 224 to 226 °C. For `CCOC(=O)CNC(=O)CC`, the melting point is 50 to 52 °C. With `CCOC(=O)c1cc(N)c2c(c1)OCO2`, the melting point was 68 to 70 °C. As for `Sc1nnc(-c2cccs2)[nH]1`, the melting point fell in the range of 239 to 241 °C. In turn, `CCCC(=O)Nc1cccc(CN)c1` displayed a melting point of 54 to 56 °C. As for `CC(=O)NCCc1ccc(C(C)=O)cc1`, the melting point lay within 94 to 96 °C. `Cc1nnc(N2CCCC2)c(C(N)=S)c1C` showed a melting point of 169 to 171 °C. In turn, `O=C(O)CCS(=O)(=O)c1ccc(Cl)cc1` had a melting point of 181 to 183 °C. To `CC(C)(C)OC(=O)NNCCS(C)(=O)=O` belongs 105 to 107 °C; to `Cc1occc1-c1nnc(S)n1C`, 118 to 120 °C.

As for `Nc1cccc(C#Cc2ccccc2)c1`, the melting point was 47 to 49 °C. With `Clc1noc(-c2ccco2)n1` the figure was 73 to 75 °C. To `CNC(=O)c1ccc(Cl)cc1N` belongs 93 to 95 °C; to `CCc1nc(C(=O)O)nn1-c1ccccc1Cl`, 164 to 166 °C. Consider `O=C(O)CC1C=CS(=O)(=O)C1` (centres undefined), for which the melting point lay within 81 to 83 °C. On to `O=C1C=C(c2ccccc2)CCC1`, for which the melting point fell in the range of 63 to 65 °C. Consider `Nc1ccc(N2CCNC(=O)C2)cc1`, for which the melting point was in the range of 167 to 169 °C. `CCOCCOc1c(N)cccc1Cl`: the melting point was 65 to 67 °C. `CCS(=O)(=O)c1ccc(Cl)cc1C(=O)O` showed a melting point of 104 to 106 °C. In turn, `N#Cc1ccccc1-c1ccc(CN)cc1` had a melting point of 53 to 55 °C.

As for `O=C(Nc1cn[nH]c1)c1ccncc1`, the melting point was in the range of 239 to 241 °C. `CC(C)c1cc(NC(=O)CCl)on1` registered a melting point of 75 to 77 °C. With `COC(=O)c1c[nH][nH]c1=O` the figure was 209 to 211 °C; with `O=C(O)c1ccc(NS(=O)(=O)c2ccc(Br)cc2)cc1`, 267 to 269 °C; with `Cc1csc(NC(=O)CSCC(N)C(=O)O)n1` (centres undefined), 169 to 171 °C. `CCOC(=O)c1ccc(-c2ccc(C=O)o2)cc1` displayed a melting point of 110 to 112 °C. The molecule `CC1CN(Cc2ccc(C(=O)O)cc2)CCO1` (centres undefined) registered a melting point of 186 to 188 °C.

As for `COc1ccc(CNC(=O)OC(C)(C)C)c(OC)c1`, the melting point was in the range of 59 to 61 °C. As for `CC(C)(C)OC(=O)Nc1csc(Br)n1`, the melting point lay in the range of 104 to 106 °C. To `Cc1cccc2c(=O)[nH]c(CCl)nc12` belongs 190 to 192 °C; to `O=C(O)c1cc2ccc(SC(F)(F)F)cc2[nH]1`, 185 to 187 °C; to `Nc1cccc(-c2nc(C3CC3)no2)c1`, 89 to 91 °C.

In turn, `COc1ccccc1Nc1ccc([N+](=O)[O-])cc1N` gave a melting point of 149 to 151 °C. Take `Sc1nnc(-c2sc3ccccc3c2Cl)o1`: the melting point was 231 to 233 °C.

Turning to `Cn1nnnc1-c1cccc(NC(=O)OCC(F)(F)F)c1`, the melting point was in the range of 128 to 130 °C. To `COC(=O)c1ccc(Oc2cccnc2)cc1` belongs 82 to 84 °C. Turning to `CC(C)(C)OC(=O)NC1(CC(=O)O)CCC1`, the melting point was 126 to 128 °C. To `Nc1ccc(NCCCC(=O)O)cc1` belongs 148 to 150 °C.

Regarding `Cc1[nH]c2c(C(=O)O)cccc2c1C`, the melting point lay within 206 to 208 °C. In turn, `NS(=O)(=O)N1CCN(Cc2ccccc2)CC1` returned a melting point of 147 to 149 °C. With `CC(=O)N1Cc2ccccc2CC1C(=O)O` (centres undefined) the figure was 173 to 175 °C; with `Nc1ccc(CC(=O)N2CCN(c3ccccc3)CC2)cc1`, 201 to 203 °C. Take `N#Cc1ccc(C(=O)O)[nH]1`: the melting point is 239 to 241 °C. `Oc1ccc(OCC(F)(F)F)cc1` yielded a melting point of 60 to 62 °C. With `COc1ccc(OC)c(C(O)CN)c1` (centres undefined), the melting point was in the range of 96 to 98 °C.

With `COc1ccc(C(=O)NN)c(OC)c1`, the melting point is 112 to 114 °C. For the molecule `Oc1ccc2nc[nH]c2c1`, the melting point was in the range of 215 to 217 °C. For the molecule `Cn1cc(C=NNC(N)=S)cn1`, the melting point is 189 to 191 °C.
